Values joined by “and” are separate entries in the source; they are usually repeats but may differ in a detail not shown here. Identical values can stand only once.
What was measured:
[1] = protein binding assay in mouse plasma; type: in vitro ADME; settings: read-out: free fraction
[2] = test system: pancreatic islets of Langerhans from wild-type mice; test: glucose stimulated insulin secretion (GSIS), isolated wild-type islets; type: cell-based, mouse; settings: WT islets; for secreted insulin per islet: 10 uM compound, 60 min, individual wells
Procedure: Pancreatic islets of Langerhans were isolated from wild-type and GPR40−/− mice (littermates) by collagenase digestion and discontinuous Ficoll gradient separation. […] Insulin secretion was determined by a 1 hr static incubation in Krebs-Ringer bicarbonate (KRB) buffer in a 96-well format as previously described. Briefly, islets were first preincubated in KRB medium with 2 mmol/l glucose for 30 min and were then transferred to a 96-well plate (three islets/well) and incubated with 200 μl of the KRB medium with 2 or 15 mmol/l glucose in the presence or absence of testing compounds for 60 min. The buffer was removed from the wells at the end of the incubation and assayed for insulin levels using the Ultrasensitive Rat Insulin ELISA kit (ALPCO, Salem, NH). All insulin secretion data were normalized by total islet numbers (ex: three islets/well), so the unit is secreted insulin (ng/ml) per islet.

Rat PPARδ = target: T1, Rat PPARδ (Rattus norvegicus, UniProt Q62879); test: cell-based nuclear receptor profiling (Indigo Biosciences), PPARδ
T1 sequence (Q62879 1-440): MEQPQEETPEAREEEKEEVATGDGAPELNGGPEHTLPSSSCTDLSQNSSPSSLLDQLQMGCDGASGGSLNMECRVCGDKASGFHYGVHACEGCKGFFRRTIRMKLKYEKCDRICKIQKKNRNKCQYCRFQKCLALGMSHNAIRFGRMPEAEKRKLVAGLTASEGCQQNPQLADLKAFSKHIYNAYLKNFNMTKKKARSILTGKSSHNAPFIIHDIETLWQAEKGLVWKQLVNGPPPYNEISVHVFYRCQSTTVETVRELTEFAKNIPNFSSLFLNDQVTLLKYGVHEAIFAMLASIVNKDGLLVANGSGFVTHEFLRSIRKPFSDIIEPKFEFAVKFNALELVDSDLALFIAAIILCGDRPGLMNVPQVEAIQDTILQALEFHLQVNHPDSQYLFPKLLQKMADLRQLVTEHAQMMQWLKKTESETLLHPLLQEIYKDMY
Procedure: Rat PPARα, PPARδ, and PPARγ activities were determined by Indigo Biosciences (State College, PA) cell-based nuclear receptor profiling service.

WKY rats = test: endogenous glucose production in vivo, 2H/13C dual tracer, acute treatment, WKY rats; parameters: species or system rat
Procedure: [The procedure below names another organism; the source lists this organism under the same test.] To evaluate whether MK-2305 treatment produced an effect on EGP in vivo, a ^2H/^13C dual tracer approach was used to calculate EGP and its contributing sources. On the day of the study, GK rats were bled via tail snip, and blood glucose was measured via glucometer. Ambient glucose was measured at 8 A.M. and used to sort animals into treatment groups (n = 8 per group). 0.9% NaCl salinated D2O (Sigma-Aldrich, St. Louis, MO) was administered to all animals via IP injection at dose volume of 20 ml/kg. Animals were then placed in clean cages and food was removed. After a 5 hour fast, blood glucose was measured and animals were dosed PO with MK-2305 at 10 mg/kg (5 ml/kg) or vehicle (0.5% methylcellulose) immediately followed by 50 mg/kg [U-^13C] glucose (Sigma-Aldrich) IP at 5 ml/kg. Blood was collected via tail snip at time points from 60–150 min post treatment to measure blood glucose as well as endogenous (^12C-glucose) and exogenous (^13C-glucose) via GCMS. Following the last tail blood collection, rats were anesthetized with isoflurane and cardiac blood was collected into K2EDTA tubes (Becton, Dickinson and Co., Franklin Lakes, NJ).
The serially collected blood samples were analyzed for ^13C-glucose enrichment using GC-MS analysis. The % ^13C glucose enrichments were then combined with the total glucose readings to calculate the concentration of ^13C-glucose, and these values were modeled with a two-compartment model of whole body glucose metabolism to calculate the average EGP for the period from 0–150 minutes.
Terminal blood samples were analyzed for relative ^2H enrichment in plasma glucose using the monoacetone glucose method. Briefly, samples were extracted with 70% perchloric acid and centrifuged at 25,000 rcf for 10 min at 4°C. The supernatant was collected and the pH was adjusted to 6–8 using KOH. The samples were then lyophilized overnight. To convert plasma glucose to monoacetone glucose (MAG), acetone and concentrated sulfuric acid were added to the lyophilized samples and stirred for 4 hours at room temperature. Water was then added and the pH adjusted to 2.0 with 3M Na2CO3. Samples were stirred moderately for 18 hours at room temperature, the pH was adjusted to 7 with 3M Na2CO3, and the samples were completely dried by speed vacuum concentration. The resulting MAG samples were then extracted in hot ethyl acetate, dried overnight under a stream of N2 gas, purified using Discovery DSC-18 SPE columns (6 ml, 1 g bed weight), and freeze dried. Purified MAG samples were solubilized in 180 μl 90% acetonitrile for ^2H NMR analysis which was performed using the lock channel of a 950 MHz Bruker NMR spectrometer (David H Murdock Research Institute, Kannapolis, NC). Acquisition parameters were as follows: 90° pulse, D1 = 1 s, ^1H broadband decoupling, NS = 3600 averages, acquisition time ~ 1 hr. The ^2H NMR spectra of the MAG samples were then analyzed using in–house developed Matlab (The Mathworks Inc, Natick, MA) to model the NMR peaks with a Lorentzian line shape, and the results were used to calculate integrals for each of the seven NMR resonances in the MAG spectrum. Peaks 2, 5, and 6s were then used to calculate the relative sources of EGP (i.e. gluconeogenesis from TCA cycle substrates, gluconeogenesis from triose phosphates, and glycogenolysis) and these values were combined with the total EGP measurement to calculate absolute fluxes of glucose production.

[3] = acute treatment, 10 mg/kg, individual animals

Structure (SMILES): O=C1NC(=O)C(C2CCOc3cc(Oc4ccc(C(F)(F)F)cc4Cl)ccc32)S1 (stereo not drawn) [MK-2305]
- fraction unbound [1]: 0.026
- secreted insulin per islet ([2]; 2mM glucose): 0.6472 ng/ml per islet and 0.4249 ng/ml per islet and 0.7026 ng/ml per islet and 0.678 ng/ml per islet and 0.4061 ng/ml per islet and 0.594 ng/ml per islet and 0.652 ng/ml per islet and 0.541 ng/ml per islet
- secreted insulin per islet ([2]; 15 mM Glucose): 5.982 ng/ml per islet and 3.69 ng/ml per islet and 4.728 ng/ml per islet and 4.578 ng/ml per islet and 5.448 ng/ml per islet and 3.948 ng/ml per islet and 4.236 ng/ml per islet and 5.162 ng/ml per islet
- effect on GSIS ([2]; high (15 mM) but not basal (2 mM) glucose): acutely stimulate GSIS
- EC50 (Rat PPARδ): > 10 µM
- % Activation (Rat PPARδ; @ 10 μM): -0.1 @ 10 μM % and -0.08%
- % Effect (Rat PPARδ; Dose 0.309 nM): -0.01%
- % Effect (Rat PPARδ; Dose 0.981 nM): 0.01%
- % Effect (Rat PPARδ; Dose 3.11 nM): -0.001%
- % Effect (Rat PPARδ; Dose 9.85 nM): -0.01%
- % Effect (Rat PPARδ; Dose 31.2 nM): -0.01%
- % Effect (Rat PPARδ; Dose 99 nM): 0.01%
- % Effect (Rat PPARδ; Dose 314 nM): 0.00%
- % Effect (Rat PPARδ; Dose 995 nM): -0.02%
- % Effect (Rat PPARδ; Dose 3155 nM): -0.04%
- % Effect (Rat PPARδ; Dose 10000 nM): -0.08%
- effects on EGP (WKY rats; acute): not statistically significant
- Glucose Production, GNG Glycerol (WKY rats; [3]): 2.7 umol/kg/min (2×) and 2.4 umol/kg/min and 1.6 umol/kg/min
- Glucose Production, GNG TCA (WKY rats; [3]): 8 µmol/kg/min and 8.7 µmol/kg/min and 7.8 µmol/kg/min and 6.4 µmol/kg/min
- Glucose Production, GNG Total (WKY rats; [3]): 10.7 µmol/kg/min and 11.2 µmol/kg/min and 10.5 µmol/kg/min and 8.1 µmol/kg/min
- Glucose Production, Glycogenolysis (WKY rats; [3]): 6.9 µmol/kg/min and 4.7 µmol/kg/min and 6.8 µmol/kg/min and 3.4 µmol/kg/min
